Measurements taken from patent US5795612A, “Aspartyldipeptideamine derivatives and sweetner” (Ajinomoto Co., Inc., priority 1995, dated 1998).
Residues, ends and D or L forms follow the SMILES beside them.

Assays:
[1] = Sensory evaluation of sweetness potency relative to sugar; conditions: for Sweetnes Potency: Table 1, compared with 4% aqueous sucrose solution; for Sweetness Potency (sugar=1): sensory evaluation
[2] = Stability (half-life) heated to 70° C. in a phosphate buffer (pH=3); format: physicochemical

SMILES	Sweetnes Potency [1]	Sweetness Potency (sugar=1) [1]	half-life [2]
CC[C@H](NC(=O)[C@H](NC(=O)[C@@H](N)CC(=O)O)C(C)C)c1ccc(Cl)cc1 [Example 6, α-L-aspartyl-D-valine (S)-α-ethyl-p-chlorobenzylamide]	1250	1250	
COCC(NC(=O)[C@H](NC(=O)[C@@H](N)CC(=O)O)C(C)C)c1ccco1 (mixture of isomers) [Example 9, α-L-aspartyl-D-valine (RS)-α-furyl-β-methoxyethylamide]	200	Approximately 200	
CC(C)[C@@H](NC(=O)[C@@H](N)CC(=O)O)C(=O)N[C@@H](C)c1ccc(O)cc1 [Example 5, α-L-aspartyl-D-valine (S)-α-methyl-p-hydroxybenzylamide]	1000	1000	
COC[C@H](NC(=O)[C@H](NC(=O)[C@@H](N)CC(=O)O)C(C)C)c1ccc(OC)cc1 [Example 8, α-L-aspartyl-D-valine (R)-α-methoxymethyl-p-methoxybenzylamide]	250	Approximately 250	
CC[C@H](NC(=O)[C@H](NC(=O)[C@@H](N)CC(=O)O)C(C)C)c1ccncc1 [Example 7, α-L-aspartyl-D-valine (S)-α-4-pyridylpropylamide]	300	Approximately 300	
CC[C@H](NC(=O)[C@@H](CC)NC(=O)[C@@H](N)CC(=O)O)c1ccc(O)cc1 [Example 1, α-L-aspartyl-D-α-aminobutyric acid (S)-α-ethyl-p-hydroxybenzylamide]	2000	2000	
COC[C@H](NC(=O)[C@H](NC(=O)[C@@H](N)CC(=O)O)C(C)C)c1ccc(O)cc1 [Example 4, α-L-aspartyl-D-valine (R)-α-methoxymethyl-p-hydroxybenzylamide]	1250	1250	
COC(=O)[C@H](Cc1ccccc1)NC(=O)[C@@H](N)CC(=O)O [aspartame] (H-Asp-Phe-OMe)			approximately 1 days
CC[C@@H](NC(=O)[C@@H](N)CC(=O)O)C(=O)N[C@@H](COC)c1ccc(O)cc1 [Example 2, α-L-aspartyl-D-α-aminobutyric acid (R)-α-methoxymethyl-p-hydroxybenzylamide]	1500	1500	
CC[C@H](NC(=O)[C@H](NC(=O)[C@@H](N)CC(=O)O)C(C)C)c1ccc(O)cc1 [Example 3, α-L-aspartyl-D-valine (S)-α-ethyl-p-hydroxybenzylamide]	1500	1500	
